The values below come from the NIST ThermoML archive (doi:10.1016/j.fluid.2013.06.021).

In general, viscosity refers to the resistance of a fluid to flow. As usually defined, the speed of sound is the propagation velocity of pressure waves in the medium. The term mass density denotes the mass of a sample divided by its volume.

For the data set the following is noted: 298.15 K, 101.33 kPa, Liquid; for viscosity: Capillary tube (Ostwald / Ubbelohde) method; for speed of sound: Sing-around technique in a fixed-path interferometer; for mass density: Vibrating tube method.

Numbers after ± are expanded uncertainties.

For the compound `CCCCOCCO` [2-butoxyethan-1-ol], the viscosity is reported as 2.885 ± 0.12 mPa·s, the speed of sound stood at 1306 ± 0.7 m/s and the mass density is listed as 896.312 ± 0.083 kg/m3.
The corresponding values for `CCCCO` [butan-1-ol] are 2.625 ± 0.12 mPa·s, 1240.6 ± 0.71 m/s and 805.986 ± 0.12 kg/m3.
For the compound `CCC(C)O` (stereo not given) [butan-2-ol], the viscosity is recorded as 3.075 ± 0.12 mPa·s, the speed of sound is 1213.3 ± 0.81 m/s and the mass density amounted to 802.563 ± 0.14 kg/m3.
With `CCCO` [propan-1-ol], the viscosity stood at 1.984 ± 0.12 mPa·s, the speed of sound amounted to 1207 ± 0.8 m/s and the mass density was 800.13 ± 0.14 kg/m3.
The corresponding values for `CC(C)O` [propan-2-ol] are 2.111 ± 0.12 mPa·s, 1140.6 ± 0.64 m/s and 781.588 ± 0.12 kg/m3.
